In patent publication US20210198201A1, “Orally Active Melanocortin Receptor-4 Compounds” (Palatin Technologies, Inc., priority 2018, published 2021):

How the values were obtained:
[1] = target: T1, MC4r (Homo sapiens, UniProt P32245); experiment: Binding of iodine-125 labeled NDP-α-MSH, human recombinant CHO cells, hMC4r; design: expressed in transfected cells; host or cells: CHO
Method: (§1) Melanocortin receptor binding and function of Compound 7.1 was tested. Ki binding values (nM) were calculated utilizing the percent inhibit of the binding of iodine-125 labeled NDP-α-MSH against B16-F1 cells for mMC1r, and human recombinant CHO cells for hMC3r, hMC4r and hMC5r, with the inhibition constant calculated using the Cheng Prusoff equation. Functional results (EC50 and efficacy) were calculated utilizing cAMP assays with NDP-α-MSH for mMC1r, hMC3r and hMC4r, ACTH for hMC2r, and α-MSH for hMC5r for agonist measures, with the same target cells for melanocortin receptors mMC1r, hMC3r, hMC4r and hMC5r, and human recombinant Cloudman M3 cells for hMC2r.

[2] = target: T2, hMC5r (Homo sapiens, UniProt P33032); experiment: cAMP assay hMC5r (human recombinant CHO cells, α-MSH reference); assay type: cell-based
T2 construct: expressed in transfected cells; host or cells: CHO
Method: as §1

[3] = target: T1, MC4r; experiment: cAMP functional study in human MC4r expression system approximating maximal physiologic receptor densities; assay type: cell-based; design: host or cells: TREx-293; conditions: low receptor density human MC4r system
Method: Assay for Agonist Activity. Accumulation of intracellular cAMP was examined as a measure of the ability of the peptides of the present invention to elicit a functional response in HEK-293 cells that express MC4-R. Confluent HEK-293 cells that express recombinant hMC4-R were detached from culture plates by incubation in enzyme-free cell dissociation buffer. Dispersed cells were suspended in Hanks' Balanced Salt Solution containing 10 mM HEPES (pH 7.5), 1 mM MgCl2, 1 mM glutamine, 0.5% albumin and 0.3 mM 3-isobutyl-1-methyl-xanthine (IBMX), a phosphodiesterase inhibitor. The cells were plated in 96-well plates at a density of 0.5×10^5 cells per well and pre-incubated for 10 minutes. Cells were exposed for 15 minutes at 37° C. to peptides of the present invention dissolved in DMSO (final DMSO concentration of 1%) at a concentration range of 0.05-5000 nM in a total assay volume of 200 μL. NDP-α-MSH was used as the reference agonist. cAMP levels were determined by an HTRF® cAMP cell-based assay system from Cisbio Bioassays utilizing cryptate-labeled anti-cAMP and d2-labeled cAMP, with plates read on a Perkin-Elmer Victor plate reader at […]. Data analysis was performed by nonlinear regression analysis with Graph-Pad Prism® software. The maximum efficacies of the test peptides of the present invention were compared to that achieved by the reference melanocortin agonist NDP-αMSH.
Low Receptor Density Systems. In functional studies preferably a human MC4r expression system approximating maximal human physiologic receptor densities is employed. In one aspect, a tetracycline-regulated mammalian expression system that uses regulatory elements from the E. coli Tn10-encoded tetracycline (Tet) resistance operon was employed (T-REx™ System, Invitrogen). By use of the T-REx™ System, expression of the gene of interest, the human MC4-R gene, was repressed in the absence of tetracycline or doxycycline and induced in the presence of tetracycline or doxycycline, with receptor density being dependent on the concentration of tetracycline or doxycycline. See generally Yao F. et al: Tetracycline repressor, tetR, rather than the tetR-mammalian cell transcription factor fusion derivatives, regulates inducible gene expression in mammalian cells. Hum. Gene Ther. 9:1939-1950 (1998), incorporated here by reference. Regulation was based on the binding of tetracycline or doxycycline, a derivative of tetracycline, to the Tet repressor and derepression of the promoter controlling expression of the human MC4-R gene. In general tetracycline or related regulators, such as tetracycline-derivatives, may be used to induce the gene expression. An inducible expression plasmid for expression of human MC4-R gene under the control of the strong human cytomegalovirus immediate-early (CMV) promoter and two tetracycline operator 2 (TetO2) sites was employed, together with a regulatory plasmid, pcDNA6/TR, which encodes the Tet repressor (TetR) under the control of the human SV40 promoter. Thus, expression of the human MC4-R gene from the inducible expression vector was controlled by the strong CMV promoter into which 2 copies of the tet operator 2 (TetO2) sequence had been inserted in tandem. The TetO2 sequences consisted of 2 copies of 19-nucleotide sequence separated by a 2 base pair spacer. Each 19 nucleotide TetO2 sequence served as the binding site for 2 molecules of the Tet repressor. The expression vector pcDNA4/TO/MC4R was introduced into TREx-293 (Invitrogen, R710-07), a cell line stably expressing the tetracycline repressor pcDNA6/TR using lipofectamin 2000 reagent (Invitrogen, 11668-019). Alternatively, both the expression vector and repressor are introduced into host cells by standard transformation or transfection methods.

[4] = system: Male mice homozygous for the obese spontaneous mutation, Lep^ob; experiment: Oral administration in leptin-deficient obese mice, body weight; assay type: in vivo, mouse; conditions: 30 mg/kg twice daily for six days
Method: Male mice homozygous for the obese spontaneous mutation, Lep^ob, with resulting leptin protein deficiency, were individually housed with free access to feed and drinking water. All animals were sham-dosed twice daily for five days prior to initial drug administration, utilizing a vehicle dose of 3.2% mannitol and […] tris(hydroxymethyl)aminomethane at pH 7.4. On day 6 a cohort of the mice received compound 7.1 dissolved into the vehicle twice daily for six consecutive days at a dose of 30 mg/kg. Body weight of animals was measured daily, with data analyzed as the percent change from baseline of each individual animal, where baseline was defined as the average weight during the first three days of sham dosing. The averaged percent change from baseline of a vehicle group was then subtracted from each value to correct for continued weight gain or other study-wide factors. The change in body weight is shown in FIG. 3 starting on study day 1, the first day of administration of compound 7.1.

[5] = system: MC4r (−/−) mice; experiment: Oral administration in MC4r knockout mice, feed intake and body weight; assay type: in vivo, mouse
Method: Feed intake and body weight was evaluated in MCr4 knockout (MC4r−/−) mice (Jackson Laboratories) compared to C57Bl/6 DIO mice. […] Feed weights were taken at time 0, 2, 6 and 24 hours post lights out. […] The change in body weight is shown in FIG. 4 starting on study day 5, the first day of administration of compound 7.1. […] Additionally, there was a statistically significant mean difference, 2.8%, 95% Cl (1.281, 4.253), and p value <0.0001 between DIO mice receiving compound 7.1 and MC4r (−/−) receiving compound 7.1.

T1 sequence (P32245 whole entry): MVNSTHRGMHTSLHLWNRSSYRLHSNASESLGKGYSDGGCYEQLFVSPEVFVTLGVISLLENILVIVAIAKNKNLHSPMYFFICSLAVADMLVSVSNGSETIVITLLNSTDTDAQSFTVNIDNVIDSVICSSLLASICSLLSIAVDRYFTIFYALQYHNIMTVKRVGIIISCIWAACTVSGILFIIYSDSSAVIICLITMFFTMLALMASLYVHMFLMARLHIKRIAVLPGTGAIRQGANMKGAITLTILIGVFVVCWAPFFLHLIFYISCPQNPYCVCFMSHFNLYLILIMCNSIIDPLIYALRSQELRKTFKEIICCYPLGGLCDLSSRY
T2 sequence (P33032 whole entry): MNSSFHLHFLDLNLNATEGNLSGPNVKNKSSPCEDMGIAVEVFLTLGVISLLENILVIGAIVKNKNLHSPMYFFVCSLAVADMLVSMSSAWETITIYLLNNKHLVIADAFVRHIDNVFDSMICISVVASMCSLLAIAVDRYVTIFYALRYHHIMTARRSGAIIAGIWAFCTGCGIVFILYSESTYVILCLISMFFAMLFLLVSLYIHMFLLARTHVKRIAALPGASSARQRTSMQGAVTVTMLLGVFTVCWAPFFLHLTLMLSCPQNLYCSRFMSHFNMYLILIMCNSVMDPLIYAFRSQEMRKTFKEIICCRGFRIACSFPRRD

## CC(=O)N1CCC(N(CC(C)C)N2CCN(C(=O)[C@@H](Cc3ccc(Cl)cc3)NC(=O)C(C)(C)N)CC2)CC1 [Compound 7.1, N-[(1R)-2-[4-[(1-acetyl-4-piperidyl)-isobutyl-amino]piperazin-1-yl]-1-[(4-chlorophenyl)methyl]-2-oxo-ethyl]-2-amino-2-methyl-propanamide]
[1]
  Ki: 14 nM
[2]
  EC50: > 1000 nM
[3]
  EC50: 23 nM
[3]; read-out: relative efficacy, compared to NDP-α-MSH
  Emax: 33%
[4]
  decrease in body weight compared to vehicle controls: 4.8%
[5]; 30 mg/kg twice daily
  notable mean percentage body weight change difference between treated group and vehicle (in words): not
[5]; 30 mg/kg twice daily oral gavage
  food consumption vs vehicle only (in words): no differences
